Laboratory results reported in article PMC3638593, “1,4-dihydroxy-2-naphthoic Acid Induces Apoptosis in Human Keratinocyte: Potential Application for Psoriasis Treatment” (Evidence-based Complementary and Alternative Medicine : eCAM, 2013).
Several values for one entry are separate records, joined by “and”; a condition that tells them apart may be missing. Identical values can stand only once. Like-named read-outs stand apart in the source and are kept apart here.

Columns and labels:
Format in all cases: cell-based, human
[1] = test system: HaCaT cells; assay: DNA fragmentation, Cell Death Detection ELISAplus; conditions: 240 μM (49.01 μg/mL)
Method: After incubation of HaCaT cells with DHNA, subsequent experimental steps were following the protocol of the Cell Death Detection ELISA^plus (Roche Applied Science, Basel, Switzerland). Absorbance was measured at 405/490 nm by the Sunrise microplate spectrophotometer. Enrichment of mono- and oligonucleosomes (cytoplasmic histone-associated DNA fragments) into the cytoplasm was calculated as absorbance of treatment cells/absorbance of control (enrichment factor) which was used as a parameter of apoptosis.

[2] = test system: cell cycle related proteins in HaCaT cells; assay: Western blot of cell cycle related proteins; conditions: 12 h
Method: (§1) After DHNA treatment HaCaT cells were collected and lysed in CelLytic M Mammalian Cell Lysis/Extraction Reagent with freshly added Protease Inhibitor Cocktail for 30 min at 4°C. Cell lysate was centrifuged at 15000 g for 15 min at 4°C and supernatant was collected as whole cell lysate. Protein concentration was determined by Bio-Rad protein assay dye reagent concentrate (Bio-Rad Laboratories, Hercules, CA, USA) following the manufacturer's instructions. Whole cell lysate was denatured by boiling for 5 min in 6X SDS loading buffer (0.375 M Tris [pH 6.8], 30% glycerol, 12% SDS, 0.2% bromophenol blue and 12% β-mercaptoethanol). Equal amount of protein (10–20 μg) was then separated by 12–15% SDS-PAGE and later proteins were transferred to polyvinylidene difluoride membrane (Millipore, Billerica, MA, USA) using Trans-Blot SD semidry transfer cell (Bio-Rad Laboratories). After that, membranes were blocked with 2–5% (w/v) bovine serum albumin or nonfat dry milk in Tris-buffered Saline-Tween (TBS-T; 0.05% v/v Tween-20, 10 mM Tris [pH 7.4], 150 mM NaCl) for 1 h and subsequently incubated overnight at 4°C with different primary antibodies in TBS-T. Membrane was then washed using TBS-T and followed by incubation with corresponding horseradish peroxidase labeled second antibodies (Santa Cruz Biotechnology) in TBS-T for 1 h. After washing of membrane with TBS-T, protein bands were visualized using Immobilon Western Chemiluminescent HRP Substrate (Millipore) and autoradiography with Lumi-Film Chemiluminescent Detection Film (Roche Applied Science). Equal protein loading was monitored by β-actin antibody on the same membrane.

[3] = test system: HaCaT cells; assay: Hoechst 33342 fluorescent staining for morphological evaluation; conditions: 72 h
Method: After DHNA treatment, HaCaT cells were fixed in 4% paraformaldehyde for 30 min, washed with phosphate-buffered saline (PBS) and then stained with 2 μg/mL Hoechst 33342 (Molecular Probes, Eugene, OR, USA) for 15 min at room temperature in the dark. Morphology was evaluated using an Axiophot fluorescence microscope (Carl Zeiss, Oberkochen, Germany).

[4] = test system: HaCaT cells; assay: TUNEL assay, flow cytometry; conditions: 24 h
Method: After DHNA treatment, HaCaT cells were collected and washed and subsequent steps were following the protocol of In Situ Cell Death Detection kit, Fluorescein (Roche Applied Science). Fluorescein-labeled DNA strand breaks were detected by flow cytometry. The percentage of hypodiploid (fragmented) nuclei reflecting relative proportion of apoptotic cells was analyzed by WinMDI 2.9.

[5] = test system: AIF and endoG in HaCaT cells; assay: Immunofluorescence staining of AIF and endoG; conditions: 240 μM (49.01 μg/mL), 24 h
Method: HaCaT cells were first seeded on cover-slipped 6 well plates. After DHNA treatment, cells were washed three times with PBS and fixed in 1 : 1 acetone/methanol at −20°C for 10 min. Thereafter, cells were washed with PBS three times and then blocked for 15 min in blocking solution (1% BSA in PBS) at room temperature. After that, cells were incubated with either one of the following antibodies in blocking solution overnight at 4°C: apoptosis inducing factor, AIF or endonuclease G, and endoG. Cells were then washed with PBS three times and incubated with corresponding secondary antibody conjugated to Alexa Fluor 488 (Molecular Probes) in blocking solution in dark at room temperature for 1 h. After further washing with PBS for three times, the cover slips were then mounted on glass slides using the Vectashield mounting medium with DAPI (Vector Laboratories, Burlingame, CA). Stained cells were then visualized under the Nikon Ti-E inverted microscope (Nikon, Tokyo, Japan).

[6] = test system: IL-1α release from NCTC 2544 cells; assay: IL-1α release assay (ELISA)
Method: NCTC 2544 cells were seeded and treated with various concentrations of DHNA or dithranol for 72 h. After incubation, the microplate was centrifuged and conditioned medium was collected to determine the extracellular IL-1α (IL-1α release) using an IL-1α ELISA kit (Diaclone Research, France). All other steps were then according to the manufacturer's protocol. Results were expressed in pg/mL.

[7] = test system: apoptosis related proteins in HaCaT cells; assay: Western blot of apoptosis related proteins
Method: as §1

[8] = test system: HaCaT cells; assay: Annexin V/propidium iodide staining, flow cytometry; conditions: for viability at 30 µM / viability at 60 µM / viability at 120 µM / viability at 240 µM: Homo sapiens, HaCaT, read-out: viable cells (FITC−/PI−, lower left)
Method: After DHNA treatment, HaCaT cells were resuspended in annexin V binding buffer (10 mM HEPES, 140 mM NaCl, and 2.5 mM CaCl2, pH 7.4) and then incubated with FITC-conjugated annexin V (Biosource International, Inc., USA), and 0.5 μg/mL propidium iodide (PI) for 15 min at room temperature in the dark. Cells were analyzed on a FACSCanto flow cytometer (BD Biosciences, San Jose, CA, USA) immediately and then analyzed using WinMDI 2.9 (developed by Dr. J. Trotter, Scripps Institute, La Jolla, CA, USA). The total number of early (FITC+/PI−) and late (FITC+/PI+) apoptotic cells was assessed. In another experiment, HaCaT cells were preincubated with 40 μM pan-caspase inhibitor Z-VAD-FMK (BD Pharmingen, San Diego, CA, USA) for 1 h before exposure to DHNA.

## O=C(O)c1cc(O)c2ccccc2c1O [DHNA, 1,4-dihydroxy-2-naphthoic acid]
[1]; 24 h
  increase of DNA fragmentation compared with vehicle control: approximately 3.4 folds
[1]; 48 h
  increase of DNA fragmentation compared with vehicle control: ~5.2 folds
[2]; 240 μM (49.01 μg/mL)
  active form of Cdk2 (Thr160 phosphorylated, 33 kDa): no visible change
  inactive form of Cdk2 (Thr14 and Tyr15 phosphorylated, 34 kDa): increased
  level of Cyclin A/D1/D3 and Cdk4: decreasing
[2]
  expression level of p27 and Cdk6: remains unchanged
  expression of cyclin dependent kinase inhibitor p21: dose-dependent increase
[3]; 120 μM (24.5 μg/mL)
  nuclear morphology (Hoechst 33342): light blue/white fluorescence was emitted from the nuclei of all cells
[3]; 30, 60 and 120 μM
  nuclear fragmentation (Hoechst 33342): nuclear fragmentation was also observed
[3]; 30 and 60 μM
  nuclear morphology (Hoechst 33342): chromatin condensation
[4]; 30 μM/6.13 μg/mL
  TUNEL positive cells: 15.8%
[4]; 240 μM/49.01 μg/mL
  TUNEL positive cells: 92.7%
[5]
  localization of AIF and endoG: translocated to the nucleus
[6]; 46.80 μM or 9.56 μg/mL, 72 h
  IL-1α release at IC50 on NCTC 2544 keratinocytes: no significant IL-1α was released
[6]; NCTC 2544, 72 h, DHNA versus dithranol
  higher concentration needed for IL-1α release than dithranol: ~ 30 times
[6]; NCTC 2544, 72 h, versus vehicle control
  concentration at which IL-1α release is significantly induced: 60 μM and 12.25 μg/mL
[7]; 240 μM (49.01 μg/mL), 12 h
  Bid cleavage: not cleaved
  Fas receptor and active form of caspase-3/7/8: upregulated
  PARP cleavage: induced PARP cleavage
  active form of caspase-9: no active form of caspase-9 was found
  procaspase-8 level: decreased
[7]; 12 h
  expression levels of Bcl-2, Bcl-xL, Bid, and FADD: no significant changes
[7]; 24 h
  activated caspase-9 and cleaved Bid: could then be detected
[8]; 30 μM/6.13 μg/mL, 9 h
  total apoptotic fraction (early plus late apoptotic cells): 10.4%
[8]; 30 μM/6.13 μg/mL, 24 h
  total apoptotic fraction (early plus late apoptotic cells): 13.7%
[8]; 240 μM/49.01 μg/mL, 9 h
  total apoptotic fraction (early plus late apoptotic cells): 45.5%
[8]; 240 μM/49.01 μg/mL, 24 h
  total apoptotic fraction (early plus late apoptotic cells): 89.7%
[8]; 9 h
  viability at 30 µM: 88.9%
  viability at 60 µM: 86.2%
  viability at 120 µM: 81.8%
  viability at 240 µM: 44.3%
[8]; 24 h
  viability at 30 µM: 85%
  viability at 60 µM: 77.5%
  viability at 120 µM: 50.2%
  viability at 240 µM: 8.8%
